For 13 compounds, IC90, IC50 and Ki results are on record in patent publication US11851418B2, “Heteroaromatic carboxamide derivatives as plasma kallikrein inhibitors” (Boehringer Ingelheim International GmbH, priority 2020, dated 2023).

Common to all, as to format: biochemical
Experiment [1] deals with T1, PKK in kaolin activated human platelet poor plasma (Homo sapiens, UniProt P03952).
T1 construct: Platelet poor plasma (PPP) obtained from human wholeblood; from tissue
As to the kind of experiment: Inhibition of PKK in kaolin activated human PPP. To be noted: kaolin (25, 75, 250, 750 μg/mL) activated human PPP, global fit. As for the experimental part: Platelet poor plasma (PPP) obtained from human wholeblood, anticoagulated with Na-Citrate, is incubated with various concentrations of the test compound together with either 25, 75, 250, or 750 μg/mL kaolin in assay buffer for 20 min at 37° C. such that for each kaolin dose used a concentration response is obtained for the test compound.

The next experiment has as its target T2, Human PKK (Homo sapiens, UniProt P03952).
T2 construct: purchased Enzyme Research Laboratories
Kind of experiment: Inhibition of PKK using an endpoint assay. To be noted: fluorogenic substrate H-Pro-Phe-Arg-AMC, 1 h at room temperature. The procedure:
(§1) The ability of compounds of formula (I) to inhibit plasma kallikrein (PKK), Factor XIIa (FXIIa), Factor XIa (FXIa), Factor Xa (FXa), Factor IIa (alpha-thrombin; FIIa), plasmin, trypsin, tissue kallikrein 1 (TK1), Factor Vila (FVIIa), or FVIIa complexed with Tissue Factor, phospholipids and CaCl2 (FVIIa/TF/PL/CaCl2) is determined using the following biochemical assays in assay buffer (100 mM Tris, 150 mM NaCL, adjusted to a pH of 7.8 with HCl, and containing 0.1% (w/v) BSA and 0.05% (v/v) Tween20) in the presence of 1% (v/v) DMSO:
Subsequently, PPACK 11 (Calbiochem) is added as a stop solution to achieve a final concentration of 1 μM and fluorescence is measured using an Envision Reader (PerkinElmer) with the wavelength excitation setting of 355 nm and the wavelength emission setting of 460 nm.

The target of a further experiment is T3, human TK1 (Homo sapiens, UniProt P06870).
T3 construct: purchased R&D Systems
T3 sequence (P06870 25-262): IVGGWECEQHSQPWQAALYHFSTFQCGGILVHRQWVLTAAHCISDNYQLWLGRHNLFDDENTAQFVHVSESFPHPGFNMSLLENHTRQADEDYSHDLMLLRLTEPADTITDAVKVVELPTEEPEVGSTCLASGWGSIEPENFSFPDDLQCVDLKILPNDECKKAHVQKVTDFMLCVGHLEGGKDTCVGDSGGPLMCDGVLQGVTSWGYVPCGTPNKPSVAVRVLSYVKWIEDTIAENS
As to the kind of experiment: Inhibition of TK1 (Ki). To be noted: activated human TK1, substrate H-Pro-Phe-Arg-AMC, 24° C.; Ki from IC50 corrected for KM. As for the experimental part:
as §1
Prior to the assay, human TK1 (R&D Systems) is activated by incubation with human trypsin (Calbiochem) in a 1:10,000 ratio for 15 min at 37° C. For assaying TK1 inhibitory activity, activated TK1 (31.25 nM or 1 U/mL) is incubated at 24° C. with 0.1 mM fluorogenic substrate H-Pro-Phe-Arg-AMC (I1295 from Bachem) and various concentrations of the test compound in assay buffer. Measurements are performed in a kinetic interval every 2nd minute for 16 min using a Spectramax M5 (Molecular Devices) with the following settings of the wavelength excitation of 350 nm and wavelength emission of 450 nm.
The pIC50 values are then fitted using a four-parametric fitting procedure using GraphPad Prism (version 6; GraphPad Software, Inc.). […]

T1 sequence (P03952 391-638 limits assumed): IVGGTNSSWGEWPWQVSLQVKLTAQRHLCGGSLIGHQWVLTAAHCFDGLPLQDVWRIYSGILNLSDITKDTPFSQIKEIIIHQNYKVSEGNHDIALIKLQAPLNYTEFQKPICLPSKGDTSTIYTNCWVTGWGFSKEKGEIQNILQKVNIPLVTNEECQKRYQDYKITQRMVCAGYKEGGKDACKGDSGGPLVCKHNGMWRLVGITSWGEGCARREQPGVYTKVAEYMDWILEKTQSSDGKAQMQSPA
T1 sequence (P03952 20-390 partner limits assumed): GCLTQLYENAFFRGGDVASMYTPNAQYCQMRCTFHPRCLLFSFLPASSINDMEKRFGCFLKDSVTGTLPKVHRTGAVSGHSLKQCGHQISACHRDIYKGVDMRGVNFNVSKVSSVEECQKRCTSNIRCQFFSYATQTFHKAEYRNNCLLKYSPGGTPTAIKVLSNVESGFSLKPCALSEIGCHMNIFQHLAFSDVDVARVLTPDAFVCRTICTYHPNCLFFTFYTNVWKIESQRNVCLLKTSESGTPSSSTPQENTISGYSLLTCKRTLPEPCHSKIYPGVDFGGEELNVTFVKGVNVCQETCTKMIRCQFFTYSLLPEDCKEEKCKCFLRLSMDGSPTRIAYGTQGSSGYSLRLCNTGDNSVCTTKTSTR
T2 sequence (P03952 391-638 limits assumed): as the sequence (P03952 391-638 limits assumed) above
T2 sequence (P03952 20-390 partner limits assumed): as the sequence (P03952 20-390 partner limits assumed) above

In experiment [1], `Cc1[nH]nc2c1CC[C@H]2NC(=O)c1cnn(Cc2ccc(N3CC4CC4C3)nc2C(F)F)c1` (stereo partly drawn) [Example 7, 1-[(6-{3-Azabicyclo[3.1.0]hexan-3-yl}-2-(difluoromethyl)-pyridin-3-yl)methyl]-N-[(6R)-3-methyl-2H,4H,5H,6H-cyclopenta[c]pyrazol-6-yl]-1H-pyrazole-4-carboxamide] yielded an IC90 of 0.195 µM. For `Cc1[nH]nc2c1CC[C@H]2NC(=O)c1cnn(Cc2cnc(N3CC4CC4C3)nc2C(F)F)c1` (stereo partly drawn) [Example 2, 1-[(2-{3-Azabicyclo[3.1.0]hexan-3-yl}-4-(difluoromethyl)-pyrimidin-5-yl)methyl]-N-[(6R)-3-methyl-2H,4H,5H,6H-cyclopenta[c]pyrazol-6-yl]-1H-pyrazole-4-carboxamide], on Human PKK, the IC50 worked out at 0.0018 µM. This compound also yielded an IC90 in experiment [1] of 0.499 µM.

As to `Cc1[nH]nc2c1CC[C@H]2NC(=O)c1cn(Cc2ccc(N3CC4(CC4)C3)nc2C(F)F)cn1` [Example 5, 1-[(6-{5-Azaspiro[2.3]hexan-5-yl}-2-(difluoromethyl)-pyridin-3-yl)methyl]-N-[(6R)-3-methyl-2H,4H,5H,6H-cyclopenta[c]pyrazol-6-yl]-1H-imidazole-4-carboxamide], the IC90 in experiment [1] was determined as 0.149 µM. Compound `Cc1[nH]nc2c1CC[C@H]2NC(=O)c1cn(Cc2ccc(N3CC4CC4C3)nc2C(F)F)nn1` (stereo partly drawn) [Example 3, 1-[(6-{3-Azabicyclo[3.1.0]hexan-3-yl}-2-(difluoromethyl)-pyridin-3-yl)methyl]-N-[(6R)-3-methyl-2H,4H,5H,6H-cyclo-penta[c]pyrazol-6-yl]-1H-1,2,3-triazole-4-carboxamide] had a concentration for half-maximal inhibition (IC50) against Human PKK of 0.0009 µM. Also, the 90% effect level in experiment [1] (IC90) was put at 0.486 µM. `Cc1[nH]nc2c1CC[C@H]2NC(=O)c1cnn(Cc2ccc(N3CC4C(C3)C4(F)F)nc2C(F)F)c1` (stereo partly drawn) [Example 10, 1-[(6-{6,6-Difluoro-3-azabicyclo[3.1.0]hexan-3-yl}-2-(difluoromethyl)pyridin-3-yl)methyl]-N-[(6R)-3-methyl-2H,4H,5H,6H-cyclopenta-[c]pyrazol-6-yl]-1H-pyrazole-4-carboxamide] gave an IC90 in experiment [1] of 0.242 µM. On Human PKK, `Cc1[nH]nc2c1CC[C@H]2NC(=O)c1cnn(Cc2ccc(N3CC4CC4C3)nc2C(F)(F)F)c1` (stereo partly drawn) [Example 13, 1-[(6-{3-Azabicyclo[3.1.0]hexan-3-yl}-2-(trifluoromethyl)pyridin-3-yl)methyl]-N-[(6R)-3-methyl-2H,4H,5H,6H-cyclopenta[c]pyrazol-6-yl]-1H-pyrazole-4-carboxamide] displayed an IC50 of 0.0019 µM. Also, in experiment [1], the 90% effect level (IC90) was put at 0.746 µM. The Ki at human TK1 is above 10 µM. On to `Cc1[nH]nc2c1CC[C@H]2NC(=O)c1cnn(Cc2cnc(N3CC4CC4C3)cc2C(F)(F)F)c1` (stereo partly drawn) [Example 12, 1-[(6-{3-Azabicyclo[3.1.0]hexan-3-yl}-4-(trifluoromethyl)-pyridin-3-yl)methyl]-N-[(6R)-3-methyl-2H,4H,5H,6H-cyclopenta[c]pyrazol-6-yl]-1H-pyrazole-4-carboxamide], for which it took 0.0026 µM to reach half-maximal inhibition at Human PKK (IC50).

Compound `Cc1[nH]nc2c1CC[C@H]2NC(=O)c1cn(Cc2ccc(N3CC4(CC4)C3)nc2C(F)F)nn1` [Example 4, 1-[(6-{5-Azaspiro[2.3]hexan-5-yl}-2-(difluoromethyl)pyridin-3-yl)methyl]-N-[(6R)-3-methyl-2H,4H,5H,6H-cydopenta[c]-pyrazol-6-yl]-1H-1,2,3-triazole-4-carboxamide] registered an IC90 in experiment [1] of 0.122 µM. At Human PKK, `Cc1[nH]nc2c1CC[C@H]2NC(=O)c1cn(Cc2cnc(N3CC4CC4C3)nc2C(F)F)cn1` (stereo partly drawn) [Example 8, 1-[(2-{3-Azabicyclo[3.1.0]hexan-3-yl}-4-(difluoromethyl)-pyrimidin-5-yl)methyl]-N-[(6R)-3-methyl-2H,4H,5H,6H-cyclopenta[c]pyrazol-6-yl]-1H-imidazole-4-carboxamide] yielded an IC50 of 0.0021 µM. Further, the 90% effect level in experiment [1] (IC90) was put at 0.305 µM. Turning to `Cc1[nH]nc2c1CC[C@H]2NC(=O)c1cn(Cc2cnc(N3CC4CC4C3)cc2C(F)(F)F)cn1` (stereo partly drawn) [Example 9, 1-[(6-{3-Azabicyclo[3.1.0]hexan-3-yl}-4-(trifluoromethyl)-pyridin-3-yl)methyl]-N-[(6R)-3-methyl-2H,4H,5H,6H-cyclopenta[c]pyrazol-6-yl]-1H-imidazole-4-carboxamide], it took 0.0018 µM to reach half-maximal inhibition against Human PKK (IC50). Further, it took 0.539 µM to reach the 90% level in experiment [1] (IC90). In addition, at human TK1, the Ki is above 10 µM. With `Cc1[nH]nc2c1CC[C@H]2NC(=O)c1cn(Cc2ccc(N3CC4CC4C3)nc2C(F)F)cn1` (stereo partly drawn) [Example 6, 1-[(6-{3-Azabicyclo[3.1.0]hexan-3-yl}-2-(difluoromethyl)-pyridin-3-yl)methyl]-N-[(6R)-3-methyl-2H,4H,5H,6H-cyclopenta[c]pyrazol-6-yl]-1H-imidazole-4-carboxamide], in experiment [1], the 90% effect level (IC90) was put at 0.293 µM. For the compound `Cc1[nH]nc2c1CC[C@H]2NC(=O)c1cnn(Cc2ccc(N3CC4(CC4)C3)nc2C(F)F)c1` [Example 1, 1-[(6-{5-Azaspiro[2.3]hexan-5-yl}-2-(difluoromethyl)pyridin-3-yl)methyl]-N-[(6R)-3-methyl-2H,4H,5H,6H-cyclopenta[c]pyrazol-6-yl]-1H-pyrazole-4-carboxamide], the IC50 against Human PKK was found to be 0.0008 µM. In experiment [1], this compound registered an IC90 of 0.182 µM.

`Cc1[nH]nc2c1CC[C@H]2NC(=O)c1cn(Cc2ccc(N3CC4C(C3)C4(F)F)nc2C(F)F)cn1` (stereo partly drawn) [Example 11, 1-[(6-{6,6-Difluoro-3-azabicyclo[3.1.0]hexan-3-yl}-2-(difluoromethyl)pyridin-3-yl)methyl]-N-[(6R)-3-methyl-2H,4H,5H,6H-cyclopenta-[c]pyrazol-6-yl]-1H-imidazole-4-carboxamide] gave an IC90 in experiment [1] of 0.236 µM.

By IC90 is commonly meant the concentration needed for an effect of 90%. Read a high IC90 as a need for much substance. As usually defined, the IC50 is the concentration at which inhibition is half-maximal. A low value points to greater potency in that assay. As usually defined, the Ki is the dissociation constant of the complex between target and ligand, obtained from inhibition or displacement. Higher therefore signals a looser hold on the target.
